From ChEMBL document CHEMBL1201862, “PubChem BioAssay data set” (2004) come the findings set out here.

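All cell lines were grown in 96-well plates and treated with compound for 48 hours. At the GI50, growth is halved.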 The source made the active and inactive calls. Rule as the data show it: active = GI50 up to about 1.1 µM and inactive = higher.

Holding throughout (test): NCI anticancer screen, dose series, 48 h
Experiment [1] deals with MCF7.
Experiment [2] has as its system NCI/ADR-RES.
Experiment [3] concerns Hs-578T.
The test system of experiment [4] is DMS-114.
Experiment [5] deals with LXFL 529.
Experiment [6] relates to DMS-273.
The test system of experiment [7] is M19-MEL.
The subject of experiment [8] is XF498.
Experiment [9] relates to RXF 631.

Consider `O=c1c2cc(O)c(O)cc2oc2cc(O)c(C3OC(CO)C(O)C(O)C3O)c(O)c12` (centres undefined), for which the GI50 in experiment [1], in experiment [2] and in experiment [3] was > 100 µM (inactive) each time.
Turning to `CCOc1ccccc1N1C(=O)C(=O)C(c2nc3ccccc3o2)/C(=N\N)C1=O` (centres undefined), the GI50 in experiment [4], in experiment [5], in experiment [6] and in experiment [7] was > 100 µM (inactive) in each case.
For `COc1ccc(C(N)=O)cc1/N=N/N(C)C`, the GI50 in [5], in experiment [6] and in [7] was > 100 µM (inactive) each time.
Turning to `O=C1C=CC(CC(=O)c2ccc3ccccc3c2)O1` (centres undefined), the GI50 in [8] was 66.5 µM (inactive); in experiment [5], 18.4 µM (inactive); in [6], 20 µM (inactive); in [7], 43.5 µM (inactive).
On to `O=c1[nH]cnc(NC2C=C(CO)C(O)C2O)c1[N+](=O)[O-]` (centres undefined), for which the GI50 in experiment [4] was > 51.3 µM (inactive); in [8], > 100 µM (inactive); in experiment [5], > 100 µM (inactive); in experiment [6], > 47.2 µM (inactive); in [7] it was > 76.6 µM (inactive).
On to `CCOC(=O)CCN1C(=O)c2c(NC(=O)C(=O)O)cccc2S1(=O)=O`, for which the GI50 in experiment [1], in [2] and in experiment [3] was > 100 µM (inactive) throughout.
As for `CCc1c(-c2ccc(OC)cc2)oc(OC)c(C)c1=O`, the GI50 in experiment [1] was 79.1 µM (inactive); in [2] it was 49 µM (inactive); in experiment [3], > 100 µM (inactive).
Consider `CC1(C=O)C(=O)CCC2(C)C3CC(=O)OC3CCC12` (centres undefined), for which the GI50 in experiment [4], in experiment [5], in [6] and in experiment [7] was > 100 µM (inactive) throughout.
Take `CN(C)CCNC(=O)c1cccc2ncc(-c3ccccc3)nc12`: the GI50 in [4] is 12.8 µM (inactive); in [9] it was 9.59 µM (inactive); in [5], 6.81 µM (inactive); in [6] it was 5.09 µM (inactive); in experiment [7], 14.2 µM (inactive).
Turning to `CCC(=O)N1C(=S)SC[C@H]1C(=O)OC`, the GI50 in experiment [4] was > 100 µM (inactive); in experiment [8] it was 7.4 µM (inactive); in experiment [5], > 100 µM (inactive); in experiment [6], > 100 µM (inactive); in [7], > 100 µM (inactive).
Turning to `Clc1ccccc1CN1COc2c(ccc3cccnc23)C1`, the GI50 is 2.67 µM (inactive) in experiment [4], 9.68 µM (inactive) in experiment [8], 3.42 µM (inactive) in experiment [6] and 4.14 µM (inactive) in [7].
Regarding `COC(=O)C1C(=O)CC2CCCCC21` (centres undefined), the GI50 in [4], in experiment [5], in [6] and in experiment [7] was > 100 µM (inactive) throughout.
As to `N=c1nc(N)c2cc3c(N)nc(=N)c3cc12`, the GI50 was 5.74 µM (inactive) in [4]; 33.5 µM (inactive) in experiment [1]; 14.5 µM (inactive) in experiment [9]; 36.1 µM (inactive) in experiment [3]; 38.1 µM (inactive) in [5]; 30.7 µM (inactive) in experiment [6]. In experiment [7], the GI50 was 1.87 µM (inactive).
In the case of `Cc1nc(Cl)c(C)c(Cl)n1`, the GI50 in experiment [1] is > 84.5 µM (inactive); in experiment [2], > 53 µM (inactive); in [3], > 75.2 µM (inactive).
Turning to `O=C1CCC(=O)C1=NNc1ccccc1`, the GI50 in experiment [4], in experiment [9], in experiment [6] and in experiment [7] was > 100 µM (inactive) throughout.
Take `Cc1ccccc1NC(=O)C1C(=O)N(c2ccccc2C)C(=O)/C1=N\N` (centres undefined): the GI50 in experiment [4], in [9], in [5] and in experiment [7] was > 100 µM (inactive) in each case.
With `O=C(O)c1ccc(C2COc3ccc(Cl)cc3C2)cc1` (centres undefined), the GI50 in experiment [4], in experiment [8], in [5], in experiment [6] and in experiment [7] was > 100 µM (inactive) in each case.
For `Cc1cccc(C(C)(C)C)c1NC(=O)C(=O)C(c1cnc2ccccc2n1)[N+](=O)[O-]` (centres undefined), the GI50 in [4], in experiment [8], in [5], in experiment [6] and in experiment [7] was > 100 µM (inactive) throughout.
Take `CCOC(=O)C(=O)Nc1ccc(C)c(C)c1`: the GI50 in experiment [4] was > 40.9 µM (inactive); in [9], > 100 µM (inactive); in [5] it was > 86.9 µM (inactive); in [6], 34.8 µM (inactive); in experiment [7], > 67.5 µM (inactive).
With `NCCCCCCNCc1cccc2ccccc12`, the GI50 in experiment [4] was > 100 µM (inactive); in [8], 44.2 µM (inactive); in [5], > 100 µM (inactive); in [7], > 100 µM (inactive).
With `CCCCCCCCCCCCCCCC(=O)OCCOCCOCCOCc1ccccc1`, the GI50 in experiment [8], in experiment [6] and in [7] was > 100 µM (inactive) in each case.
Turning to `COc1cc(/C=C/C(=O)Oc2ccccc2)ccc1C(=O)O/C=C/c1ccccc1`, the GI50 in [4], in experiment [1], in experiment [8], in [2], in [3] and in experiment [6] was > 100 µM (inactive) in each case. The GI50 in experiment [7] is > 100 µM (inactive).
Turning to `Cc1ccc(/N=N/C(=N\c2ccc(F)cc2)c2ccc(N(CCC#N)CCC#N)cc2)cc1`, the GI50 was 42.5 µM (inactive) in experiment [1], > 100 µM (inactive) in experiment [2] and 53.7 µM (inactive) in experiment [3].
Consider `CC1=N/C(=C\c2ccc(N)cc2)C(=O)N1Nc1nnc(NN2C(=O)/C(=C/c3ccc(N)cc3)N=C2C)c2ccccc12`, for which the GI50 in experiment [5] is 36.3 µM (inactive); in [6] it was 77.3 µM (inactive); in experiment [7] it was 38.1 µM (inactive).
On to `CC(C)c1ccc(/C=C2\CSCC3=C2N=C2SCC(=O)N2C3c2ccc(C(C)C)cc2)cc1` (centres undefined), for which the GI50 in experiment [1], in [2] and in experiment [3] was > 100 µM (inactive) each time.
In the case of `Cc1c(C)c2ccc(OCC(O)COC(C)C)c(C)c2oc1=O` (centres undefined), the GI50 in [1] was 24.4 µM (inactive); in experiment [2] it was 41.5 µM (inactive); in experiment [3], 31.7 µM (inactive).
As to `N=C(N)SCc1cn2ccccc2n1`, the GI50 in experiment [4], in [8], in experiment [6] and in experiment [7] was > 100 µM (inactive) in each case.
As for `CCCCNCCCNCCCNC(=O)c1csc(-c2csc(CCNC(=O)C(NC(=O)C(C)C(O)C(C)NC(=O)C(NC(=O)c3nc(C(CC(N)=O)NCC(N)C(N)=O)nc(N)c3C)C(OC3OC(CO)C(O)C(O)C3OC3OC(CO)C(O)C(OC(N)=O)C3O)c3c[nH]cn3)C(C)O)n2)n1` (centres undefined), the GI50 in experiment [4] is 0.611 µM (active); in [1], 1.86 µM (inactive); in experiment [9], 3.58 µM (inactive); in experiment [3], 8.79 µM (inactive); in experiment [5], 40.6 µM (inactive); in experiment [6], < 0.0458 µM (active). Further, the GI50 in experiment [7] is 8.89 µM (inactive).
For the molecule `O=C1c2cccc3c(Cl)ccc(c23)C(=O)N1CCCN1CCN(CCCN2C(=O)c3cccc4c(Cl)ccc(c34)C2=O)CC1`, the GI50 in experiment [4] was > 100 µM (inactive); in experiment [8], > 100 µM (inactive); in experiment [9], 76.7 µM (inactive); in experiment [5], > 100 µM (inactive); in experiment [6], > 100 µM (inactive).
Turning to `O=C1OC2(c3ccccc3Oc3ccccc32)c2ccccc21`, the GI50 in [4], in [5], in [6] and in [7] was > 100 µM (inactive) each time.
As to `OC(c1cc2ccccc2[nH]1)C(O)(c1cc2ccccc2[nH]1)c1cc2ccccc2[nH]1` (centres undefined), the GI50 in experiment [4] was 7.31 µM (inactive); in experiment [9], 17.4 µM (inactive); in [5], 10 µM (inactive); in experiment [6], 17.9 µM (inactive); in experiment [7], 7.06 µM (inactive).
With `Fc1nc(Sc2ncnc3nc[nH]c23)nc(-c2c3ccccc3c3sc4ccccc4n23)n1`, the GI50 in experiment [1], in experiment [2] and in experiment [3] was > 100 µM (inactive) in each case.
As for `CC1C2CC=CC(=O)[C@@]2(C)CCC12OCCO2` (some centres undefined), the GI50 in experiment [4], in experiment [5], in experiment [6] and in experiment [7] was > 100 µM (inactive) each time.
On to `CC(=O)O[C@H]1CSC[C@@H](OC(C)=O)C1[N+](=O)[O-]` (some centres undefined), for which the GI50 in experiment [4] is 39.1 µM (inactive); in experiment [9] it was > 100 µM (inactive); in [5], 18 µM (inactive); in [6], > 100 µM (inactive); in experiment [7], 47.3 µM (inactive).
`COc1c(C)c(O)c2c(=O)cc(-c3ccccc3)oc2c1C`: the GI50 in [4], in experiment [9], in experiment [5] and in experiment [7] was > 100 µM (inactive) in each case.
Consider `C=C1C(=O)O[C@@H]2[C@H]1CCC(C)=C1C=CC(=O)[C@]12C`, for which the GI50 in experiment [4] is 14.3 µM (inactive); in [9] it was 11.3 µM (inactive); in [5], 13.8 µM (inactive); in experiment [6] it was 17.3 µM (inactive).
On to `O=C1c2cccc(O)c2C(=O)c2c(O)cc(CO)cc21` [ALOE-EMODIN], for which the GI50 in experiment [4] was 28.2 µM (inactive); in experiment [8] it was > 100 µM (inactive); in experiment [9], 67.5 µM (inactive); in experiment [5], 56 µM (inactive); in experiment [6], 27.5 µM (inactive).
Regarding `Cn1cnc2c(NCc3ccccc3)nc(NCCO)nc21` [OLOMOUCINE], the GI50 was 39.7 µM (inactive) in experiment [1], > 93.8 µM (inactive) in experiment [2] and 69.5 µM (inactive) in experiment [3].
With `CCC1(c2ccncc2)CCC(=O)NC1=O` (centres undefined) [ROGLETIMIDE], the GI50 in [4], in [8], in experiment [9], in experiment [5] and in experiment [7] was > 100 µM (inactive) throughout.
